Experimental data published in article PMC5218480 (PLoS ONE, 2017).

Test system: MV-4-11 cells
Assay: Gene expression microarray analysis (Affymetrix PrimeView) and GSEA
Assay type: cell-based, human
Parameters: RFU PODN (11730768_x_at) / Fold change /veh PODN (11730768_x_at) / RFU LINC00158 (11744669_a_at) / Fold change /veh LINC00158 (11744669_a_at) / RFU DUSP10 (11751237_a_at) / Fold change /veh DUSP10 (11751237_a_at) / RFU ID3 (11757404_x_at) / Fold change /veh ID3 (11757404_x_at) / RFU PLEKHG5 (11737974_s_at) / Fold change /veh PLEKHG5 (11737974_s_at) / RFU LRRC4B (11730491_at) / Fold change /veh LRRC4B (11730491_at) / RFU GIMAP4 (11747438_a_at) / Fold change /veh GIMAP4 (11747438_a_at) / RFU KRT8 (11758183_x_at) / Fold change /veh KRT8 (11758183_x_at) / RFU CNN1 (11734310_a_at) / Fold change /veh CNN1 (11734310_a_at) / RFU VPS37D (11726825_at) / Fold change /veh VPS37D (11726825_at) / RFU C10orf10 (11716522_x_at) / Fold change /veh C10orf10 (11716522_x_at) / RFU KIR2DL2 /// KIR2DL4 /// KIR2DL5A /// KIR2DL5B /// KIR2DS1 /// KIR2DS2 /// KIR2DS3 /// KIR2DS4 /// KIR3DL3 /// KIR3DL3 /// KIR3DS1 (11738374_at) / Fold change /veh KIR2DL2 /// KIR2DL4 /// KIR2DL5A /// KIR2DL5B /// KIR2DS1 /// KIR2DS2 /// KIR2DS3 /// KIR2DS4 /// KIR3DL3 /// KIR3DL3 /// KIR3DS1 (11738374_at) / RFU C1QL1 (11718748_at) / Fold change /veh C1QL1 (11718748_at) / RFU TMPRSS4 (11747572_a_at) / Fold change /veh TMPRSS4 (11747572_a_at) / RFU HAMP (11756126_x_at) / Fold change /veh HAMP (11756126_x_at) / RFU RNFT2 (11725882_a_at) / Fold change /veh RNFT2 (11725882_a_at) / RFU NR4A2 (11747474_a_at) / Fold change /veh NR4A2 (11747474_a_at) / RFU ABCC12 (11746883_a_at) / Fold change /veh ABCC12 (11746883_a_at) / RFU TMEM136 (11760407_x_at) / Fold change /veh TMEM136 (11760407_x_at) / RFU CLDN22 /// WWC2 (11732394_at) / Fold change /veh CLDN22 /// WWC2 (11732394_at) / RFU HLA-DPB1 (11760878_x_at) / Fold change /veh HLA-DPB1 (11760878_x_at) / RFU SPINT1 (11716480_a_at) / Fold change /veh SPINT1 (11716480_a_at) / RFU GAP43 (11754022_s_at) / Fold change /veh GAP43 (11754022_s_at) / RFU A4GNT (11735810_at) / Fold change /veh A4GNT (11735810_at) / RFU PRB3 (11715151_x_at) / Fold change /veh PRB3 (11715151_x_at) / RFU TUBB4B (11761932_at) / Fold change /veh TUBB4B (11761932_at) / RFU CAPN14 (11732068_a_at) / Fold change /veh CAPN14 (11732068_a_at) / RFU TMCC2 (11721928_a_at) / Fold change /veh TMCC2 (11721928_a_at) / RFU IRGQ (11745062_a_at) / Fold change /veh IRGQ (11745062_a_at) / RFU FAM174B (11720279_a_at) / Fold change /veh FAM174B (11720279_a_at) / RFU TMPRSS4 (11748680_a_at) / Fold change /veh TMPRSS4 (11748680_a_at) / RFU FAM212B (11763350_a_at) / Fold change /veh FAM212B (11763350_a_at) / RFU PLEKHG5 (11743358_a_at) / Fold change /veh PLEKHG5 (11743358_a_at) / RFU ZSCAN30 (11745921_a_at) / Fold change /veh ZSCAN30 (11745921_a_at) / RFU CMKLR1 (11741424_a_at) / Fold change /veh CMKLR1 (11741424_a_at) / RFU LOC101060620 /// MAPK8IP1 (11723275_at) / Fold change /veh LOC101060620 /// MAPK8IP1 (11723275_at) / RFU SPTSSB (11747773_x_at) / Fold change /veh SPTSSB (11747773_x_at) / RFU PRSS12 (11739890_at) / Fold change /veh PRSS12 (11739890_at) / RFU BIN1 (11741810_x_at) / Fold change /veh BIN1 (11741810_x_at) / RFU WNT11 (11732464_a_at) / Fold change /veh WNT11 (11732464_a_at) / RFU C10orf10 (11716521_a_at) / Fold change /veh C10orf10 (11716521_a_at) / RFU C5orf56 (11738089_at) / Fold change /veh C5orf56 (11738089_at) / RFU CYB561 (11721691_x_at) / Fold change /veh CYB561 (11721691_x_at) / RFU ANKRD19P (11752326_a_at) / Fold change /veh ANKRD19P (11752326_a_at) / RFU OR2T12 /// OR2T33 /// OR2T8 (11738714_s_at) / Fold change /veh OR2T12 /// OR2T33 /// OR2T8 (11738714_s_at) / RFU VCAN (11748164_a_at) / Fold change /veh VCAN (11748164_a_at) / RFU JSRP1 (11732532_at) / Fold change /veh JSRP1 (11732532_at) / RFU KRTAP10-11 (11738290_x_at) / Fold change /veh KRTAP10-11 (11738290_x_at) / RFU MYO3A (11730013_a_at) / Fold change /veh MYO3A (11730013_a_at) / RFU EBF3 (11725865_a_at) / Fold change /veh EBF3 (11725865_a_at) / RFU CAMK2N1 (11719241_x_at) / Fold change /veh CAMK2N1 (11719241_x_at) / RFU C5orf56 (11738088_a_at) / Fold change /veh C5orf56 (11738088_a_at) / RFU OLFML3 (11715873_a_at) / Fold change /veh OLFML3 (11715873_a_at) / RFU LOC100653217 /// NTM (11731650_a_at) / Fold change /veh LOC100653217 /// NTM (11731650_a_at) / RFU MAPK11 (11762145_a_at) / Fold change /veh MAPK11 (11762145_a_at) / RFU FIZ1 (11724087_x_at) / Fold change /veh FIZ1 (11724087_x_at) / RFU OASL (11726364_x_at) / Fold change /veh OASL (11726364_x_at) / RFU SOX15 (11748057_x_at) / Fold change /veh SOX15 (11748057_x_at) / RFU CD79A (11719716_a_at) / Fold change /veh CD79A (11719716_a_at) / RFU HIST1H1D (11736915_at) / Fold change /veh HIST1H1D (11736915_at) / RFU CASKIN2 (11723855_a_at) / Fold change /veh CASKIN2 (11723855_a_at) / RFU LOC730098 (11760151_x_at) / Fold change /veh LOC730098 (11760151_x_at) / RFU OR4N2 (11742367_at) / Fold change /veh OR4N2 (11742367_at) / RFU PRRT2 (11749266_a_at) / Fold change /veh PRRT2 (11749266_a_at) / RFU SNX32 (11753110_a_at) / Fold change /veh SNX32 (11753110_a_at) / RFU CDHR5 (11726645_a_at) / Fold change /veh CDHR5 (11726645_a_at) / RFU RCAN1 (11760418_a_at) / Fold change /veh RCAN1 (11760418_a_at) / RFU FAM167A (11723789_a_at) / Fold change /veh FAM167A (11723789_a_at) / RFU FAM26E (11764081_at) / Fold change /veh FAM26E (11764081_at) / RFU ISYNA1 (11749810_s_at) / Fold change /veh ISYNA1 (11749810_s_at) / RFU ACY1 (11761880_at) / Fold change /veh ACY1 (11761880_at) / RFU 11764098_at / Fold change /veh 11764098_at / RFU SAMD14 (11745864_x_at) / Fold change /veh SAMD14 (11745864_x_at) / RFU NPB (11741838_a_at) / Fold change /veh NPB (11741838_a_at) / RFU TMPRSS6 (11731388_a_at) / Fold change /veh TMPRSS6 (11731388_a_at) / RFU KRTAP10-2 (11738614_at) / Fold change /veh KRTAP10-2 (11738614_at) / RFU ARHGAP8 /// PRR5-ARHGAP8 (11727945_x_at) / Fold change /veh ARHGAP8 /// PRR5-ARHGAP8 (11727945_x_at) / RFU KRTAP5-7 /// NADSYN1 (11734609_at) / Fold change /veh KRTAP5-7 /// NADSYN1 (11734609_at) / RFU RASL12 (11751679_a_at) / Fold change /veh RASL12 (11751679_a_at) / RFU CDKN2B (11736163_a_at) / Fold change /veh CDKN2B (11736163_a_at) / RFU PRF1 (11729649_at) / Fold change /veh PRF1 (11729649_at) / RFU, ZNF638 /// ZNF638-IT1 / Fold change vs veh, ZNF638 /// ZNF638-IT1 / RFU, PANK3 / Fold change vs veh, PANK3 / RFU, SH3YL1 / Fold change vs veh, SH3YL1 / RFU, ZEB2 / Fold change vs veh, ZEB2 / RFU, NRIP1 / Fold change vs veh, NRIP1 / RFU, PTTG1IP / Fold change vs veh, PTTG1IP / RFU, CAPN2 / Fold change vs veh, CAPN2 / RFU, MED14 / Fold change vs veh, MED14 / RFU, SNORA58 / Fold change vs veh, SNORA58 / RFU, C1orf63 / Fold change vs veh, C1orf63 / RFU, LRRFIP1 / Fold change vs veh, LRRFIP1 / RFU, NDUFAF7 / Fold change vs veh, NDUFAF7 / RFU, SLC12A2 / Fold change vs veh, SLC12A2 / RFU, IBTK / Fold change vs veh, IBTK / RFU, ESF1 / Fold change vs veh, ESF1 / Fold change vs veh, TMEM50B / RFU, TAOK1 / Fold change vs veh, TAOK1 / RFU, ACBD3 / Fold change vs veh, ACBD3 / RFU, TMA16 / Fold change vs veh, TMA16 / RFU, RWDD3 / Fold change vs veh, RWDD3 / RFU, BCAT1 / Fold change vs veh, BCAT1 / RFU, EDEM3 / Fold change vs veh, EDEM3 / RFU, TMEM33 / Fold change vs veh, TMEM33 / RFU, WDR75 / Fold change vs veh, WDR75 / RFU, AHCTF1 / Fold change vs veh, AHCTF1 / RFU, TFRC / Fold change vs veh, TFRC / RFU, ZDHHC17 / Fold change vs veh, ZDHHC17 / RFU, NOM1 / Fold change vs veh, NOM1 / RFU, ARL8B / Fold change vs veh, ARL8B / RFU, ZBTB11 / Fold change vs veh, ZBTB11 / RFU, TAMM41 / Fold change vs veh, TAMM41 / RFU, KIAA1704 /// LOC100996395 / Fold change vs veh, KIAA1704 /// LOC100996395 / RFU, ING1 / Fold change vs veh, ING1 / RFU, TRMT61B / Fold change vs veh, TRMT61B / RFU, FUBP3 / Fold change vs veh, FUBP3 / RFU, TP53 / Fold change vs veh, TP53 / RFU, TNKS2 / Fold change vs veh, TNKS2 / RFU, ZFP14 / Fold change vs veh, ZFP14 / RFU, ACTR2 / Fold change vs veh, ACTR2 / RFU, PPP3R1 / Fold change vs veh, PPP3R1 / RFU, PIK3R1 / Fold change vs veh, PIK3R1 / RFU, HNRNPA1 / Fold change vs veh, HNRNPA1 / RFU, RNF170 / Fold change vs veh, RNF170 / RFU, ZNF28 / Fold change vs veh, ZNF28 / RFU, RNGTT / Fold change vs veh, RNGTT / RFU, OGT / Fold change vs veh, OGT / RFU, BRD1 / Fold change vs veh, BRD1 / RFU, MARS / Fold change vs veh, MARS / RFU, ZNF655 / Fold change vs veh, ZNF655 / RFU, FAHD1 / Fold change vs veh, FAHD1 / RFU, BDP1 / Fold change vs veh, BDP1 / RFU, LRRCC1 / Fold change vs veh, LRRCC1 / RFU, ARID1A / Fold change vs veh, ARID1A / RFU, ZNF146 / Fold change vs veh, ZNF146 / RFU, ZNF330 / Fold change vs veh, ZNF330 / RFU, GPN3 / Fold change vs veh, GPN3 / RFU, C9orf123 / Fold change vs veh, C9orf123 / RFU, N4BP2L2 / Fold change vs veh, N4BP2L2 / RFU, ARFIP1 / Fold change vs veh, ARFIP1 / RFU, FAM179B / Fold change vs veh, FAM179B / RFU, BCL10 / Fold change vs veh, BCL10 / RFU, UHRF1BP1L / Fold change vs veh, UHRF1BP1L / RFU, BET1 / Fold change vs veh, BET1 / RFU, CNOT2 / Fold change vs veh, CNOT2 / RFU, ZNF268 / Fold change vs veh, ZNF268 / Fold change vs veh, ZNF507 / RFU, DGCR2 / Fold change vs veh, DGCR2 / RFU, WDSUB1 / Fold change vs veh, WDSUB1 / Fold change vs veh, HSP90B1 /// MIR3652 / RFU, ADSS / Fold change vs veh, ADSS / RFU, GK / Fold change vs veh, GK / RFU, ZNF148 / Fold change vs veh, ZNF148 / RFU, TAF9 / Fold change vs veh, TAF9 / RFU, SLC1A5 / Fold change vs veh, SLC1A5 / RFU, SLMO2 / Fold change vs veh, SLMO2 / RFU, ABCC4 / Fold change vs veh, ABCC4 / RFU, LOC101060439 /// RAP1B / Fold change vs veh, LOC101060439 /// RAP1B / RFU, RFX7 / Fold change vs veh, RFX7 / RFU, GTPBP10 / Fold change vs veh, GTPBP10 / RFU, CNEP1R1 / Fold change vs veh, CNEP1R1 / RFU, BIVM-ERCC5 /// ERCC5 / Fold change vs veh, BIVM-ERCC5 /// ERCC5 / RFU, ILF3 / Fold change vs veh, ILF3 / RFU 11762660_at / Fold change /veh 11762660_at / RFU VCAN (11757783_s_at) / Fold change /veh VCAN (11757783_s_at) / RFU DDX43 (11728927_at) / Fold change /veh DDX43 (11728927_at) / RFU KRT8 (11758188_x_at) / Fold change /veh KRT8 (11758188_x_at) / RFU NKD1 (11759106_at) / Fold change /veh NKD1 (11759106_at) / RFU SRD5A1 (11742802_a_at) / Fold change /veh SRD5A1 (11742802_a_at) / RFU TPSAB1 /// TPSB2 (11721975_s_at) / Fold change /veh TPSAB1 /// TPSB2 (11721975_s_at) / RFU GSTM3 (11746129_a_at) / Fold change /veh GSTM3 (11746129_a_at) / RFU IL23R (11737362_x_at) / Fold change /veh IL23R (11737362_x_at) / RFU TMEM51 (11727254_a_at) / Fold change /veh TMEM51 (11727254_a_at) / RFU PIWIL2 (11732686_x_at) / Fold change /veh PIWIL2 (11732686_x_at) / RFU ORM1 (11744905_x_at) / Fold change /veh ORM1 (11744905_x_at) / RFU CCDC152 (11743942_at) / Fold change /veh CCDC152 (11743942_at) / RFU ECM1 (11717891_a_at) / Fold change /veh ECM1 (11717891_a_at) / RFU IL23R (11748794_a_at) / Fold change /veh IL23R (11748794_a_at) / RFU TNFAIP8L3 (11732012_x_at) / Fold change /veh TNFAIP8L3 (11732012_x_at) / RFU MBOAT4 (11741988_at) / Fold change /veh MBOAT4 (11741988_at) / RFU 11764193_at / Fold change /veh 11764193_at / RFU TMEM53 (11763286_at) / Fold change /veh TMEM53 (11763286_at) / RFU MAGEB2 (11727129_at) / Fold change /veh MAGEB2 (11727129_at) / RFU TMEM200A (11744735_a_at) / Fold change /veh TMEM200A (11744735_a_at) / RFU CCDC152 (11751479_a_at) / Fold change /veh CCDC152 (11751479_a_at) / RFU FAM211A (11726209_a_at) / Fold change /veh FAM211A (11726209_a_at) / RFU RGS16 (11746705_a_at) / Fold change /veh RGS16 (11746705_a_at) / RFU VCAN (11755009_s_at) / Fold change /veh VCAN (11755009_s_at) / RFU RHOB (11743442_s_at) / Fold change /veh RHOB (11743442_s_at) / RFU RGS16 (11720943_a_at) / Fold change /veh RGS16 (11720943_a_at) / RFU RGS16 (11720944_at) / Fold change /veh RGS16 (11720944_at) / RFU, VPS4B / Fold change vs veh, VPS4B / RFU, CREB1 / Fold change vs veh, CREB1 / RFU, DNAJC13 / Fold change vs veh, DNAJC13 / RFU, GNAQ / Fold change vs veh, GNAQ / RFU, CDK5R1 / Fold change vs veh, CDK5R1 / RFU, ZRANB3 / Fold change vs veh, ZRANB3 / RFU, CUL4A / Fold change vs veh, CUL4A / RFU, CCNY / Fold change vs veh, CCNY / RFU, UFL1 / Fold change vs veh, UFL1 / RFU, COG3 / Fold change vs veh, COG3 / RFU, DIAPH2 / Fold change vs veh, DIAPH2 / RFU, SKA2 / Fold change vs veh, SKA2 / RFU, AFF3 / Fold change vs veh, AFF3 / RFU, LMF1 / Fold change vs veh, LMF1 / RFU, IPO11 / Fold change vs veh, IPO11 / RFU, DFFB / Fold change vs veh, DFFB / RFU, FOXP1 / Fold change vs veh, FOXP1 / RFU, CARD8 / Fold change vs veh, CARD8 / RFU, STRN3 / Fold change vs veh, STRN3 / RFU, ADK / Fold change vs veh, ADK / RFU, RASSF2 / Fold change vs veh, RASSF2 / RFU, WIPF1 / Fold change vs veh, WIPF1 / RFU, LARP1B / Fold change vs veh, LARP1B / RFU, RASA1 / Fold change vs veh, RASA1 / RFU, RB1 / Fold change vs veh, RB1 / RFU, PPFIA1 / Fold change vs veh, PPFIA1 / RFU, MAT2A / Fold change vs veh, MAT2A / RFU, CCT5 / Fold change vs veh, CCT5 / RFU, WDR92 / Fold change vs veh, WDR92 / RFU, CUX1 / Fold change vs veh, CUX1 / RFU, TTC7A / Fold change vs veh, TTC7A / RFU, TMEM135 / Fold change vs veh, TMEM135 / RFU, DEPTOR / Fold change vs veh, DEPTOR / RFU, CPM / Fold change vs veh, CPM / RFU, DNAJB6 / Fold change vs veh, DNAJB6 / RFU, CACNA2D3 / Fold change vs veh, CACNA2D3 / RFU, DTX4 / Fold change vs veh, DTX4 / RFU, TFCP2 / Fold change vs veh, TFCP2 / RFU, GMCL1 /// GMCL1P1 / Fold change vs veh, GMCL1 /// GMCL1P1 / RFU, AEBP2 / Fold change vs veh, AEBP2 / RFU, SNHG1 /// SNORD22 /// SNORD25 /// SNORD26 /// SNORD27 /// SNORD28 /// SNORD29 /// SNORD31 / Fold change vs veh, SNHG1 /// SNORD22 /// SNORD25 /// SNORD26 /// SNORD27 /// SNORD28 /// SNORD29 /// SNORD31 / Fold change (Aza/veh), C12orf56 (ProbeSet 11735607_a_at) / Fold change (ACY-1035/veh), C12orf56 (ProbeSet 11735607_a_at) / Fold change (Aza/veh), FGFR1OP (ProbeSet 11751329_s_at) / Fold change (ACY-1035/veh), FGFR1OP (ProbeSet 11751329_s_at) / Fold change (Aza/veh), VPS36 (ProbeSet 11739960_a_at) / Fold change (ACY-1035/veh), VPS36 (ProbeSet 11739960_a_at) / RFU SYPL1 (11715823_x_at) / Fold change /veh SYPL1 (11715823_x_at) / RFU IGFBP7 (11715501_s_at) / Fold change /veh IGFBP7 (11715501_s_at) / RFU REEP3 (11722064_at) / Fold change /veh REEP3 (11722064_at) / RFU IGLL1 (11728026_x_at) / Fold change /veh IGLL1 (11728026_x_at): dose or concentration left out as unconfirmed
Details: MV-4-11 cells, 48 hours

Nc1ccc(-c2cccs2)cc1NC(=O)c1ccc2c(c1)cc(C1CC1)n2CCN1CCOCC1 [ACY-1035]
Fold change /veh JSRP1 (11732532_at): 0.91
